Reference: BigSolDB 2.1

SMILES: Cc1onc(-c2c(Cl)cccc2Cl)c1C(=O)N[C@@H]1C(=O)N2[C@@H]1SC(C)(C)[C@@H]2C(=O)[O-].O.[Na+]
- solubility (mole fraction) (in acetone, 288.15 K): 0.000605
- solubility (mole fraction) (in acetone, 293.15 K): 0.000795
- solubility (mole fraction) (in acetone, 298.15 K): 0.00101
- solubility (mole fraction) (in acetone, 303.15 K): 0.00128
- solubility (mole fraction) (in acetone, 308.15 K): 0.00161
- solubility (mole fraction) (in acetone, 313.15 K): 0.00198
- solubility (mole fraction) (in acetone, 318.15 K): 0.00244
- solubility (mole fraction) (in acetonitrile, 288.15 K): 0.000144
- solubility (mole fraction) (in acetonitrile, 293.15 K): 0.000155
- solubility (mole fraction) (in acetonitrile, 298.15 K): 0.000174
- solubility (mole fraction) (in acetonitrile, 303.15 K): 0.000184
- solubility (mole fraction) (in acetonitrile, 308.15 K): 0.000209
- solubility (mole fraction) (in acetonitrile, 313.15 K): 0.000221
- solubility (mole fraction) (in acetonitrile, 318.15 K): 0.000246
- solubility (mole fraction) (in ethanol, 288.15 K): 0.00146
- solubility (mole fraction) (in ethanol, 293.15 K): 0.00167
- solubility (mole fraction) (in ethanol, 298.15 K): 0.00187
- solubility (mole fraction) (in ethanol, 303.15 K): 0.00211
- solubility (mole fraction) (in ethanol, 308.15 K): 0.00237
- solubility (mole fraction) (in ethanol, 313.15 K): 0.00267
- solubility (mole fraction) (in ethanol, 318.15 K): 0.00292
- solubility (mole fraction) (in ethyl acetate, 288.15 K): 0.000548
- solubility (mole fraction) (in ethyl acetate, 293.15 K): 0.000686
- solubility (mole fraction) (in ethyl acetate, 298.15 K): 0.000843
- solubility (mole fraction) (in ethyl acetate, 303.15 K): 0.001
- solubility (mole fraction) (in ethyl acetate, 308.15 K): 0.00123
- solubility (mole fraction) (in ethyl acetate, 313.15 K): 0.00149
- solubility (mole fraction) (in ethyl acetate, 318.15 K): 0.00178
- solubility (mole fraction) (in isopropanol, 288.15 K): 0.000409
- solubility (mole fraction) (in isopropanol, 293.15 K): 0.000524
- solubility (mole fraction) (in isopropanol, 298.15 K): 0.000618
- solubility (mole fraction) (in isopropanol, 303.15 K): 0.000683
- solubility (mole fraction) (in isopropanol, 308.15 K): 0.000854
- solubility (mole fraction) (in isopropanol, 313.15 K): 0.000958
- solubility (mole fraction) (in isopropanol, 318.15 K): 0.00118
- solubility (mole fraction) (in methanol, 288.15 K): 0.0418
- solubility (mole fraction) (in methanol, 293.15 K): 0.0476
- solubility (mole fraction) (in methanol, 298.15 K): 0.0536
- solubility (mole fraction) (in methanol, 303.15 K): 0.06
- solubility (mole fraction) (in methanol, 308.15 K): 0.0657
- solubility (mole fraction) (in methanol, 313.15 K): 0.0768
- solubility (mole fraction) (in methanol, 318.15 K): 0.0853
